From patent publication US20210379035A1, “Methods Of Treating Fabry Patients Having Renal Impairment” (Amicus Therapeutics, Inc., priority 2017, published 2021)

Legend:
α-Gal A = assay: ERT-naïve study: WBC α-Gal A activity; format: in vivo, human
Protocol: (§1) One study was a 24-month trial, including a 6-month double-blind, placebo-controlled period, in 67 ERT-naïve patients. The other study was an active-controlled, 18-month trial in 57 ERT-experienced patients with a 12-month open-label extension (OLE). Both the ERT-naïve and ERT-experienced studies included Fabry patients having an eGFR of ≥30 mL/min/1.73 m^2.
A further analysis of data from these studies examined annualized change in eGFRCKD-EPI, LVMi, WBC α-Gal A activity and plasma lyso-Gb3 levels based on renal function at baseline.

[1] = Additional simulations on renal impairment subjects (Example 4); parameters: species or system human; details: simulation
Fabry patients [2] = assay: ERT-naïve study: LVMi; format: in vivo, human
Protocol: as §1
(§2) A further analysis of data from these studies examined annualized change in eGFRCKD-EPI, LVMi, WBC α-Gal A activity and plasma lyso-Gb3 levels based on renal function at baseline. The results for each renal subgroup are shown in Table 9 below, with the ERT-naïve study subgroups based on eGFRMDRD and the ERT-experienced study subgroups based on mGFRiohexol.

[3] = Single-dose renal impairment PK and safety study in non-Fabry subjects (Example 1); format: in vivo, human
Protocol: The eGFR was estimated by the Cockcroft-Gault equation per the FDA Guidance for renal impairment studies.
Volunteers were enrolled into two cohorts stratified for renal function calculated using the Cockcroft-Gault equation for creatinine clearance (CLCR). Subjects were assigned to groups based on an estimated CLCR at screening as calculated using the Cockcroft-Gault equation.
Subjects were grouped according to degree of renal dysfunction: mild (CLCR≥60 and <90 mL/min), moderate (CLCR≥30 and <60 mL/min), or severe (CLCR≥15 and <30 mL/min)

[4] = Plasma and urine PK in healthy volunteers and Fabry patients (single and multiple ascending dose studies); format: in vivo, human; details: for Mean percent of the dose recovered in urine: SAD study
Fabry patients [5] = assay: ERT-experienced study: LVMi; format: in vivo, human; details: Migalastat 0-18 months
Protocol: as §1, §2

[6] = Plasma migalastat concentration in two Fabry patients with renal impairment (Example 3); format: in vivo, human; details: for concentration at 3 h: 3 Hrs Post
Protocol: (§3) Thus, two Fabry patients with renal impairment were evaluated. One patient (P1) had moderate renal impairment, while the other patient (P2) had severe renal impairment. […] The comparison with the results from the ERT-naïve study allows for comparison of PK in the Fabry population with mostly normal, but some mild and a few moderately impaired Fabry patients. None of the patients in the ERT-naïve study had severe renal impairment because these patients were excluded from the study.

Fabry patients [7] = assay: eGFR (MDRD) in Fabry patient P1; format: in vivo, human; details: P1 on migalastat, moderate impairment
Protocol: as §3

[8] = test system: GL-3 inclusions per kidney interstitial capillary; assay: ERT-naïve study: kidney interstitial capillary GL-3 inclusions; format: in vivo, human
Protocol: In the ERT-naïve study, the primary efficacy parameter was GL-3 inclusions per kidney interstitial capillary. Renal function was also evaluated by mGFRiohexol, eGFRCKD-EPI and eGFRMDRD.

[9] = Migalastat→Migalastat 0-24 months, renal subgroup 30 to < 60
[10] = Migalastat→Migalastat 0-24 months, renal subgroup ≥60
[11] = Placebo→Migalastat 6-24 months, renal subgroup 30 to < 60
[12] = Placebo→Migalastat 6-24 months, renal subgroup ≥60
[13] = human, plasma, oral, 150 mg, single 150 mg migalastat HCl, non-Fabry, Mild (N = 8)
[14] = human, plasma, oral, 150 mg, single 150 mg migalastat HCl, non-Fabry, Moderate (N = 8)
[15] = human, plasma, oral, 150 mg, single 150 mg migalastat HCl, non-Fabry, Normal (N = 8)
[16] = human, plasma, oral, 150 mg, single 150 mg migalastat HCl, non-Fabry, Severe (N = 8)
[17] = P1, second measurement set 6 months after the first

AUC Ratio ([1]; Mild (>=60-<90) vs Normal): 1.2
AUC Ratio ([1]; Moderate (>=30-<60) vs Normal): 1.9
AUC Ratio ([1]; Severe (<30) vs Normal): 4.8
Mean percent of the dose recovered in urine ([4]; 25 mg): 32.2%
Mean percent of the dose recovered in urine ([4]; 75 mg): 43.0%
Mean percent of the dose recovered in urine ([4]; 225 mg): 49.3%
Mean percent of the dose recovered in urine ([4]; 675 mg): 48.5%
excretion ([4]; human, in vivo): primarily excreted unchanged in urine
half-life ([4]; human, plasma, single-dose studies, oral, read-out: mean elimination half-lives (t1/2)): 3.04 to 4.79 h
accumulation of plasma migalastat ([4]; multiple ascending dose studies): only minimal accumulation
increase of mean Cmax and AUC0-t with dose ([4]; oral doses from 75 mg to 1250 mg): dose-proportional manner
time to maximum concentrations ([4]; single-dose studies, oral, range 1 to 6 hrs): approximately 3 hours
increase of C48 concentration [6, 17]: 49%
increase of Cmax [6, 17]: 33%
concentration at 3 h ([6]; human, plasma, Migalastat Conc 6 months later, Fabry patient P1, moderate renal impairment): 2160 ng/mL
concentration at 24 h ([6]; human, plasma, Migalastat Conc 6 months later, Fabry patient P1, moderate renal impairment, 24 Hrs Post): 211 ng/mL
concentration at 48 h ([6]; human, plasma, Migalastat Conc 6 months later, Fabry patient P1, moderate renal impairment, 48 Hrs Post): 62.4 ng/mL
concentration at 3 h ([6]; human, plasma, Migalastat Conc, Fabry patient P1, moderate renal impairment): 1620 ng/mL
concentration at 24 h ([6]; human, plasma, Migalastat Conc, Fabry patient P1, moderate renal impairment, 24 Hrs Post): 168 ng/mL
concentration at 48 h ([6]; human, plasma, Migalastat Conc, Fabry patient P1, moderate renal impairment, 48 Hrs Post): 41.8 ng/mL
concentration at 2 h ([6]; human, plasma, Migalastat Concentration, Fabry patient P2, severe renal impairment, 2 h, Occasion 1): 564 ng/mL
concentration at 24 h ([6]; human, plasma, Migalastat Concentration, Fabry patient P2, severe renal impairment, 24 h, Occasion 2): 569 ng/mL
concentration at 48 h ([6]; human, plasma, Migalastat Concentration, Fabry patient P2, severe renal impairment, 48 h, Occasion 1): 322 ng/mL
concentration at 48 h ([6]; human, plasma, Migalastat Concentration, Fabry patient P2, severe renal impairment, 48 h, Occasion 2): 260 ng/mL
SMILES: OC[C@H]1NC[C@H](O)[C@@H](O)[C@H]1O [migalastat, (2R,3S,4R,5S)-2-(hydroxymethyl) piperdine-3,4,5-triol]
WBC α-Gal A Activity (males only), change from baseline (α-Gal A; [9]): +1.4 4MU/hr/mg
WBC α-Gal A Activity (males only), change from baseline, mean ± SE (α-Gal A; [10]): +1.6 ± 1.5 4MU/hr/mg
WBC α-Gal A Activity (males only), change from baseline, mean ± SE (α-Gal A; [11]): +4.0 ± 3.0 4MU/hr/mg
WBC α-Gal A Activity (males only), change from baseline, mean ± SE (α-Gal A; [12]): 5.2 4MU/h/mg
LVMi, change from baseline, mean ± SE (Fabry patients [2]; [9]): −5.5 ± 10.0 gm^2
LVMi, change from baseline, mean ± SE (Fabry patients [2]; [10]): −9.2 ± 5.8 gm^2
LVMi, change from baseline, mean ± SE (Fabry patients [2]; [11]): −21.0 ± 14.1 gm^2
LVMi, change from baseline, mean ± SE (Fabry patients [2]; [12]): −3.2 ± 5.6 gm^2
concentration at 3 h ([3]; human, plasma, oral, 150 mg, Comparison to Example 1 Moderate Impairment (migalastat concentration), non-Fabry, moderate impairment, 3 Hrs Post): 1870 ng/mL
concentration at 24 h ([3]; human, plasma, oral, 150 mg, Comparison to Example 1 Moderate Impairment (migalastat concentration), non-Fabry, moderate impairment, 24 Hrs Post): 239 ng/mL
concentration at 48 h ([3]; human, plasma, oral, 150 mg, Comparison to Example 1 Moderate Impairment (migalastat concentration), non-Fabry, moderate impairment, 48 Hrs Post): 64.5 ng/mL
concentration at 2 h ([3]; human, plasma, oral, 150 mg, Comparison to Example 1 Severe Impairment (migalastat concentration), non-Fabry, severe impairment, 2 h): 1550 ng/mL
concentration at 24 h ([3]; human, plasma, oral, 150 mg, Comparison to Example 1 Severe Impairment (migalastat concentration), non-Fabry, severe impairment, 24 h): 770 ng/mL
concentration at 48 h ([3]; human, plasma, oral, 150 mg, Comparison to Example 1 Severe Impairment (migalastat concentration), non-Fabry, severe impairment, 48 h): 334 ng/mL
AUC(0-inf) [3, 13]: 14500 ng·h/mL
AUC(0-t) [3, 13]: 14400 ng·h/mL
Cmax [3, 13]: 2190 ng/mL
concentration at 48 h ([3]; human, plasma, oral, 150 mg, single 150 mg migalastat HCl, non-Fabry, Mild (N = 8), read-out: C48): 9.34 ng/mL
half-life ([3]; human, plasma, oral, 150 mg, single 150 mg migalastat HCl, non-Fabry, Mild (N = 8), read-out: t1/2 (converted)): 7.66 h
AUC(0-inf) [3, 14]: 22500 ng·h/mL
AUC(0-t) [3, 14]: 22100 ng·h/mL
Cmax [3, 14]: 1870 ng/mL
Tmax [3, 14]: 3 h
concentration at 48 h ([3]; human, plasma, oral, 150 mg, single 150 mg migalastat HCl, non-Fabry, Moderate (N = 8), read-out: C48): 64.5 ng/mL
half-life ([3]; human, plasma, oral, 150 mg, single 150 mg migalastat HCl, non-Fabry, Moderate (N = 8), read-out: t1/2 (converted)): 22.2 h
AUC(0-inf) [3, 15]: 12400 ng·h/mL
AUC(0-t) [3, 15]: 12300 ng·h/mL
Cmax [3, 15]: 2100 ng/mL
concentration at 48 h ([3]; human, plasma, oral, 150 mg, single 150 mg migalastat HCl, non-Fabry, Normal (N = 8), read-out: C48): 5.7 ng/mL
half-life ([3]; human, plasma, oral, 150 mg, single 150 mg migalastat HCl, non-Fabry, Normal (N = 8), read-out: t1/2 (converted)): 6.42 h
AUC(0-inf) [3, 16]: 56200 ng·h/mL
AUC(0-t) [3, 16]: 53100 ng·h/mL
Cmax [3, 16]: 2080 ng/mL
Tmax [3, 16]: 4.27 h
concentration at 48 h ([3]; human, plasma, oral, 150 mg, single 150 mg migalastat HCl, non-Fabry, Severe (N = 8), read-out: C48): 334 ng/mL
half-life ([3]; human, plasma, oral, 150 mg, single 150 mg migalastat HCl, non-Fabry, Severe (N = 8), read-out: t1/2 (converted)): 32.3 h
half-life ([3]; human, plasma, po, 150 mg, single oral 150 mg migalastat HCl, mild renal impairment, read-out: t1/2 in plasma, arithmetic mean [min, max] (converted)): 7.7 h
half-life ([3]; human, plasma, po, 150 mg, single oral 150 mg migalastat HCl, moderate renal impairment, read-out: t1/2 in plasma, arithmetic mean [min, max] (converted)): 22.2 h
half-life ([3]; human, plasma, po, 150 mg, single oral 150 mg migalastat HCl, normal renal function, read-out: t1/2 in plasma, arithmetic mean [min, max] (converted)): 6.4 h
half-life ([3]; human, plasma, po, 150 mg, single oral 150 mg migalastat HCl, severe renal impairment, read-out: t1/2 in plasma, arithmetic mean [min, max] (converted)): 32.3 h
Plasma migalastat concentration ([3]; non-Fabry, moderate impairment, Pre-dose (0 h), same value as 48 h): 64.5 ng/mL
CL/F ([3]; single 150 mg migalastat HCl, non-Fabry, Mild (N = 8)): 10.3 L/h
CL/F ([3]; single 150 mg migalastat HCl, non-Fabry, Moderate (N = 8)): 6.68 L/h
CL/F ([3]; single 150 mg migalastat HCl, non-Fabry, Normal (N = 8)): 12.1 L/h
CL/F ([3]; single 150 mg migalastat HCl, non-Fabry, Severe (N = 8)): 2.67 L/h
Incidence of adverse events ([3]; single 150 mg migalastat HCl, all renal function groups): comparable across all renal function groups
increase of mean plasma migalastat AUC0-∞ compared to healthy control subjects ([3]; single oral 150 mg migalastat HCl, mild renal impairment): 1.2 fold
increase of mean plasma migalastat AUC0-∞ compared to healthy control subjects ([3]; single oral 150 mg migalastat HCl, moderate renal impairment): 1.8 fold
increase of mean plasma migalastat AUC0-∞ compared to healthy control subjects ([3]; single oral 150 mg migalastat HCl, severe renal impairment): 4.5 fold
LVMi, change from baseline, mean ± SE (Fabry patients [5]; renal subgroup 30 to < 60): −10.2 ± 2.4 gm^2
LVMi, change from baseline, mean ± SE (Fabry patients [5]; renal subgroup ≥60): −4.8 ± 2.3 gm^2
eGFRMDRD (Fabry patients [7]): 32 mL/min
change in kidney interstitial capillary GL-3 inclusions ([8]; baseline to month 6, eGFR<60 mL/min/1.73 m^2, n=3): −0.39
change in kidney interstitial capillary GL-3 inclusions ([8]; baseline to month 6, eGFR≥60 mL/min/1.73 m^2, n=22): −0.30
